Patent US9034645B2, “Methods of identifying inhibitors of gene silencing in mammalian cells” (Oregon Health & Science University, priority 2008, dated 2015)

Experiments:
Type in all cases: cell-based, mouse
[1] = tested on: silenced Aprt allele in D3, D7, D3S1 cells; assay: Aprt mRNA expression in cell lines with silenced Aprt (qRT-PCR); settings: for Aprt expression after treatment / Aprt expression / mRNA levels after treatment: overnight 3 μM 5-aza-dC or 300 nM TSA, 24 hours recovery (FIG. 12); for Aprt expression / mRNA levels after treatment: D7 cell line; for increase of Aprt mRNA levels as compared to untreated cells: 300 nM TSA
Description: FIG. 12 is a bar graph showing relative Aprt mRNA expression in parental cells with active Aprt expression (H22) and DAP-resistant cell lines with silenced Aprt expression (D7, D3, and D3S1) in untreated cells and cells treated with 3 μM 5-aza-dC or 300 nM TSA. Results are the average of triplicate reactions with error bars indicating the standard deviation.
Total RNA was isolated from cell cultures with the RNeasy® Mini Kit (Qiagen, Valencia, Calif.) according to the manufacturer's instructions. Total RNA samples were converted to cDNA using Quantitect® Reverse Transcription Kit (Qiagen, Valencia, Calif.) with removal of genomic DNA contamination. 100 ng cDNA was used as input in subsequent quantitative-PCR analysis for either Aprt amplification across the exon 2-3 splice site with the sense primer qAprt-F 5′-CTCTTGGCCAGTCACCTGAAG-3′ (SEQ ID NO: 4), the antisense primer qAprt-R 5′-TCTAGACCTGCGATGTAGTCGATCT-3′ (SEQ ID NO: 5) and the TaqMan probe 5′-FAM-CAC GCA CAG CGG C-MGB-3′ (SEQ ID NO: 6) or Gapdh (Mouse TaqMan Endogenous Control, Applied Biosystems) with iQ Supermix (Bio-Rad) and a Bio-Rad iCycler.
Cells were treated overnight (about 16 hours) with media containing 300 nM TSA (Wako USA, Richmond, Va.) to inhibit histone deacetylation, 3 μM 5-aza-dC (Sigma-Aldrich, St. Louis, Mo.) to inhibit DNA methylation, or the combination of 300 nM TSA and 3 μM 5-aza-dC. Cells were allowed to recover 24 hours in DMEM after drug treatment before harvesting for RNA purification.

Ptet-HPRT in HPRT9 cells = assay: Inhibition of Dox-induced HPRT silencing (TG resistant clones); settings: 100 nM TSA or 300 nM 5-Aza-dC for the last 24 hours of 7 days 1 μM Dox; TG selection (FIG. 5)
Description: FIG. 5 is a series of digital images of dishes of TG resistant HPRT9 cells after various treatments. HPRT9 cells with Ptet-HPRT were exposed to 1 μM Dox for 7 days (Dox) to induce HPRT silencing. Some cells were also exposed 100 nM TSA (Dox+TSA) or 300 nM 5-Aza-dC (Dox+AzaC) on day 7 of Dox treatment. Control (Untreated) cells were not exposed to Dox, TSA, or 5-Aza-dC. 1×10^5 cells were plated per dish in TG medium and the dishes were stained after 12 days. The dark circles depict clones of cells that survived TG selection (TG resistant cells).
If so, silencing should be prevented by inhibiting histone deacetylation. To test this, experiments in which silencing is induced by exposure to Dox were repeated (see Example 2), but in this case the cells were exposed to TSA for the last 24 hours of Dox exposure.

BRCA1-HPRT in BSH8 cells = assay: Inhibition of hypoxia-induced silencing of BRCA1-HPRT (TG resistance frequency); settings: hypoxia two weeks, TSA 24 hours prior to TG selection (FIG. 9)
Description: FIG. 9 is a bar graph showing TG resistance frequency for BSH8 cells exposed to normoxia or hypoxia for two weeks and then selected under normoxic conditions with TG. An aliquot of the hypoxia exposed cells was treated with TSA for 24 hours (hypoxia+TSA) prior to TG selection.
Two BRCA1-HPRT cell lines obtained with this approach (BSH2 and BSH8) were exposed to hypoxic conditions (growth in an atmosphere of about 95% nitrogen and 5% oxygen) for two weeks and then exposed to 2.5 μg/ml TG under hypoxic conditions for two additional weeks to select for TG resistant cells. […] Thus, the resistance phenotype became independent of hypoxia.
(§1) To confirm that silencing (as opposed to mutation) was induced by hypoxia exposure, several BRCA1-HRPT TG resistant clones induced by hypoxia were expanded and tested to determine if they could yield revertant cells after exposure to TSA (300 nM) as presented in Example 3 for cells with silenced Ptet-HPRT constructs. […] Consistent with that result, HPRT mRNA was reduced in the TG resistant clones and restored in TSA-induced revertants.

[2] = tested on: reactivated HPRT in H4-derived clones; assay: Re-silencing frequency of reactivated Ptet-HPRT clones (TG selection); settings: overnight 300 nM 5-aza-dC before TG selection (FIG. 15)
Description: FIG. 15 is a bar graph showing inactivation frequency of H4-derived clones with silenced and reactivated HPRT expression after overnight treatment with vehicle (Untreated), 300 nM 5-aza-dC (Aza-dC) or 100 nM TSA (TSA) before selecting against HPRT activity with TG. Frequencies represent the fraction of cell colonies surviving after two weeks of TG selection.
A DIF6 derived cell line expressing HPRT under the control of the Ptet system was established as described in Example 1. Gene silencing was induced following repression of HPRT expression in the presence of Dox and spontaneous reactivant cell lines that grew well in AzHx medium were isolated. Re-silencing frequency was measured in the presence of the DNA methylation inhibitor 5-aza-dC or the HDAC inhibitor TSA.

[3] = tested on: silenced HPRT allele in H3TG3 cells; assay: HPRT reversion frequency of TG resistant cells with silenced Ptet-HPRT (HAz selection); settings: 100 nM TSA and/or 300 nM 5-aza-dC for 24 hours, 24 hour recovery, HAz medium (FIG. 3)
Description: Reversion frequencies were determined for a cell line with a silenced HPRT allele after no treatment (Untreated), treatment with 300 nM 5-aza-2′-deoxycytidine (AzaC) for 24 hours, treatment with 100 nM trichostatin A (TSA) for 24 hours, or a combination of 5-Aza-dC and TSA at the same concentrations for 24 hours. Revertant cells were selected with medium containing hypoxanthine and azaserine.
TSA was therefore used as a probe to determine if histone deacetylation played a significant role in the silencing phenotype. […] For this experiment, 1×10^6 cells were plated in a T-75 flask and treated with 100 nM TSA for 24 hours. After an additional 24 hour recovery time, the cells were re-plated in 100 mm dishes (1×10^5 cells per dish) in HAz medium to select for cells that regained HPRT expression. […] For this experiment, the cells were treated identically to those used for the TSA experiment, except they were exposed to 300 nM 5-aza-dC instead.

[4] = tested on: BRCA1-HPRT construct (human BRCA1 promoter); assay: Reversion of hypoxia-induced TG resistant clones containing BRCA1-HPRT; settings: for reversion / reactivation of hypoxia-induced BRCA1-HPRT TG resistant clones: TSA 300 nM (Table 3, FIG. 8), 5-Aza-dC concentration not given; for TSA-Induced Reversion Frequency: TSA 300 nM
Description: FIG. 8 is a bar graph showing reactivation frequency of BSH8 TG resistant clones treated with 300 nM TSA for 16 hours or in the absence of TSA (untreated).
as §1

BRCA1-HPRT [5] = assay: TG resistance frequency of BRCA1-HPRT transfectants exposed to CoCl2; settings: 50 μM or 100 μM CoCl2 for two weeks, then TG selection (FIG. 10B)
Description: FIG. 10B is a bar graph showing TG resistance frequency for BRCA1-HPRT transfectants exposed to 50 μM or 100 μM CoCl2 for two weeks, followed by TG selection.
(§2) BRCA1-HPRT and MLH1-HPRT cell lines as described in Example 5 were exposed to CoCl2 for two weeks, followed by selection of TG resistant clones. […] Expression from the MLH1 promoter was also repressed by exposure to CoCl2.

BRCA1-HPRT [6] = assay: HPRT mRNA in BRCA1-HPRT transfectants exposed to CoCl2; settings: 50 μM or 100 μM CoCl2 for two weeks (FIG. 10A)
Description: FIG. 10A is a bar graph showing HPRT mRNA levels (normalized to GAPDH) in BRCA1-HPRT transfectants exposed to 50 μM or 100 μM CoCl2 for two weeks.
as §2

[7] = tested on: MLH1 promoter (MLH1-HPRT); assay: Expression from the MLH1 promoter in MLH1-HPRT cells exposed to CoCl2; settings: CoCl2 exposure
Text: as §2

Ptet-HPRT [8] = assay: HPRT mRNA by qRT-PCR in Ptet-HPRT cells exposed to Dox; settings: after removal of Dox from the medium
Text: The cell lines described in Example 1 were used to determine if gene silencing can be induced by transient reduction of gene expression. […] In other words, Dox can reduce but not eliminate gene expression. HPRT mRNA was restored to the original levels observed in the absence of Dox within 2 days after Dox was removed from the medium.

Ptet-HPRT [9] = assay: Induction of silencing via repression of Ptet-HPRT by Dox (TG resistance frequency); settings: 1 μM Dox 7 days, then TG and puromycin selection without Dox
Description: FIG. 2 is a bar graph showing silencing frequency as a function of time of Dox exposure. HPRT 3 cells with Ptet-HPRT were exposed to 1 μM Dox for the times indicated before being released from Dox and selected with 6-thioguanine (TG). TG resistance frequencies are plotted. No TG resistant clones were identified after one or two weeks of growth in medium without Dox. The HPRT 3 cell line was created by inserting the Ptet-HPRT construct and the tet-responsive transcription activator construct into the genome of a mouse cell line termed DIF6.
To determine if gene repression could induce silencing, three cell lines expressing HPRT under control of the Ptet promoter (Ptet-HPRT) were exposed to Dox for 7 days and then selected with TG in the absence of Dox. These cells lines were chosen because 1) each gave few or no spontaneous TG resistant clones and 2) Ptet-HPRT was integrated near the bacterial puromycin (pur) selectable gene, which allowed puromycin selection to be used to prevent deletion of Ptet-HPRT. […] For this experiment, 1×10^6 cells were exposed to 1 μM Dox for 7 days, the Dox was removed from the medium, the cells re-plated in 100 mm dishes at a density of 1×10^5 cells per dish and exposed to TG (5 μg/ml) and puromycin (1.5 μg/ml).

[10] = tested on: silenced HPRT allele in H3TG3 cells; assay: Reactivation of silenced HPRT, mRNA by qRT-PCR; settings: 5 or 15 μM SFN for 24 hours, RNA 24 hours after exposure; compared with 300 nM 5-aza-dC (FIG. 4)
Description: Relative levels of HPRT mRNA were determined in H3TG3 cells exposed to 300 nM 5-Aza-dC, 5 μM SFN, or 15 μM SFN for 24 hours. RNA was collected after an additional 24 hours and quantitative real time PCR (qRT-PCR) was used to determine mRNA levels, which were set to 1.0 for untreated cells.
RNA levels instead of reactivation frequencies were used as the endpoint for this experiment.

Ptet-HPRT in HPRT3 cells = assay: Relative HPRT expression in Dox exposed cells treated with TSA (qRT-PCR); settings: 1 μM Dox 7 days, TSA on day 7 (FIG. 6)
Description: FIG. 6 is a bar graph showing relative HPRT expression after Dox exposed HPRT3 cells were treated with TSA. The HPRT3 cells expressing Ptet-HPRT were treated with 1 μM Dox for 6 days and on day 7 some cells were exposed to both Dox and TSA (at concentrations shown). RNA was collected at the end of the 7th day and assayed for HPRT levels with qRT-PCR.

For `Nc1ncn([C@H]2C[C@H](O)[C@@H](CO)O2)c(=O)n1` [5-aza-dC, 5-aza-2′-deoxycytidine], the “Aprt expression after treatment” value ([1]; D3S1 cell line) was “reactivated expression”, the “Aprt expression after treatment” value ([1]; D3 cell line) was “reactivated expression” and the “Aprt expression / mRNA levels after treatment” value [1] was “did not alter expression”. For the same molecule, the “induction of cells with silenced HPRT alleles” value (Ptet-HPRT in HPRT9 cells) was “did not inhibit”, the “hypoxia-induced silencing of the BRCA1 promoter” value (BRCA1-HPRT in BSH8 cells) was “did not inhibit the induction of silencing” and the re-silencing frequency [2] was “essentially unchanged”. The “frequency of revertant cells” value [3] was “induced revertant cells” and the “reversion / reactivation of hypoxia-induced BRCA1-HPRT TG resistant clones” value [4] was “did not reactivate the silenced clones”.

For `[Cl][Co][Cl]` [CoCl2, cobalt chloride], the TG-resistant clones (BRCA1-HPRT [5]) was “only arose in BRCA1-HPRT cells exposed to 100 μM CoCl2”, the BRCA1-HPRT expression (BRCA1-HPRT [6]) was “repressed in a dose-dependent manner” and the “Expression from the MLH1 promoter” value [7] was “repressed”.

`C[C@H]1c2cccc(O)c2C(=O)C2=C(O)[C@]3(O)C(=O)C(C(N)=O)=C(O)[C@@H](N(C)C)[C@@H]3[C@@H](O)[C@@H]21` [Dox, doxycycline] was tested, and the “time to restoration of HPRT mRNA to original levels after Dox was removed” value (Ptet-HPRT [8]) was no more than 2 days, the “Silencing Frequency” value (Ptet-HPRT [9]; HPRT 1 cell line) was 9.4 × 10^−3 and the “Silencing Frequency” value (Ptet-HPRT [9]; HPRT 3 cell line) was 2.1 × 10^−4. The “Silencing Frequency” value (Ptet-HPRT [9]; HPRT 4 cell line) was 1.6 × 10^−4.

For `C[S+]([O-])CCCCN=C=S` (centres unmarked) [SFN, sulforaphane], the “reactivation of silenced HPRT allele (RNA levels)” value [10] was “reactivate the silenced HPRT allele in a dose dependent manner, and at levels greater than that for exposure with 5-aza-dC”.

`CC(/C=C/C(=O)NO)=C\[C@@H](C)C(=O)c1ccc(N(C)C)cc1` [TSA, trichostatin A] was tested, and the “increase of Aprt mRNA levels as compared to untreated cells” value ([1]; D3S1 cell line) was 8 fold, the “increase of Aprt mRNA levels as compared to untreated cells” value ([1]; D3 cell line) was 1.5 fold and the “Aprt expression / mRNA levels after treatment” value [1] was “no affect”. For the same molecule, the “induction of cells with silenced HPRT alleles” value (Ptet-HPRT in HPRT9 cells) was “significantly inhibited”, the “hypoxia-induced silencing of the BRCA1 promoter” value (BRCA1-HPRT in BSH8 cells) was “inhibited hypoxia-induced silencing” and the “HPRT expression in the presence of Dox” value (Ptet-HPRT in HPRT3 cells) was “restored a level of HPRT expression”. The “frequency of revertant cells” value [3] was “increased”, the “TSA-Induced Reversion Frequency” value ([4]; TG cell line BSH8TG22) was 6.9 × 10^−4 and the “TSA-Induced Reversion Frequency” value ([4]; TG cell line BSH8TG23) was 1.0 × 10^−4. The “reversion / reactivation of hypoxia-induced BRCA1-HPRT TG resistant clones” value [4] was “induced revertant cells”.
